These are literature values, as cited in patent US20010034325A1, “Dietary modulators of gamma glutamyl transpeptidase” (priority 2000, published 2001).

Data set [1] concerns the target GGTP (Homo sapiens, UniProt P19440). The conditions noted are these: Misra et al. 1996.
Data set [2] has as its system GGT. Conditions: 12-o-tetradecanoyl phorbol-13-acetate induced activity.

Sequence of GGTP (P19440 whole entry): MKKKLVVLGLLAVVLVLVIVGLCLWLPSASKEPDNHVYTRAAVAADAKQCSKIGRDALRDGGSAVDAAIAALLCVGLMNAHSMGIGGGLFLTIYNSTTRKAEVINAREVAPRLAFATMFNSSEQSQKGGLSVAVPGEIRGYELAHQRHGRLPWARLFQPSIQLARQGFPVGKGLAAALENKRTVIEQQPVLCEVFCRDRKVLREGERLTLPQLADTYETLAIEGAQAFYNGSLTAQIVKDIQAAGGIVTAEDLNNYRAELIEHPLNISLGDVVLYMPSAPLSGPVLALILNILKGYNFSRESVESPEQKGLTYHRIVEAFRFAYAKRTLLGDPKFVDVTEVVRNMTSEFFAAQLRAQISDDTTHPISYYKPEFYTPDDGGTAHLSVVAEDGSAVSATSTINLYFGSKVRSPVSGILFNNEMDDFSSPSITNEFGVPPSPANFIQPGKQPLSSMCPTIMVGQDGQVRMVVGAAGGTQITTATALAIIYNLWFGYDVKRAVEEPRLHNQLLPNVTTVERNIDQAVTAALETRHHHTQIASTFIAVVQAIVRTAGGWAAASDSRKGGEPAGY

Regarding `N[C@H](C(=O)O)[C@@H]1CC(Cl)=NO1` [acivicin], the effect on diabetes entry in data set [1] was “prevents overt diabetes”.
Consider `C=CCSCC=C` [diallylsulfide (DAS), diallylsulfide], for which the “inhibition of GGT levels” value in data set [2] was “inhibited significantly”.
For the compound `OCc1c[nH]c2ccccc12` [indole-3-carbinol (I3C), indole-3-carbinol], the “inhibition of GGT levels” value in data set [2] is on record as “inhibited significantly”.
